Assay results: patent US20200068891A1, “Synergetic Biocidal Compositions Comprising 5-Chlorine-2-Methylisothiazolin-3-One” (priority 2017, published 2020)

Columns and labels:
[1] = tested on: Pseudomonas putida (DSM 25068); test: Synergy test: minimum inhibitory concentrations in microtiter plates, Pseudomonas putida in Mueller-Hinton broth; assay type: cell-based; details: 48 hours at 30° C.; for Synergy index Qa/QA + Qb/QB: below 1 = synergism; for Qa (CMIT): concentration of CMIT indicating an end point / Qa (CIT): concentration of CMIT indicating an end point: as sole agent (QA) where Qb is 0
Method: (Pseudomonas) or 25° C. (Yarrowia).
Kull et al., Applied Microbiology, Vol. 9 (1961), p. 538.
QA =concentration of component A as sole biocide
QB =concentration of component B as sole biocide

[2] = tested on: Yarrowia lipolytica (DSM 32369); test: Synergy test: minimum inhibitory concentrations in microtiter plates, Yarrowia lipolytica in Sabouraud Maltose broth; details: 48 hours at 25° C.; for Synergy index Qa/QA + Qb/QB: below 1 = synergism; for Qa (CMIT) / Qa (CMIT): concentration of CMIT indicating an end point: as sole agent (QA) where Qb is 0
Method: The test organisms used were the Gram-negative bacterium Pseudomonas putida (DSM 25068) and the yeast fungus Yarrowia lipolytica (DSM 32369). For this, mixtures with different concentrations of the particular active substances were prepared and tested in regard to their effect on Pseudomonas putida and Yarrowia lipolytica. The testing was done in Milller-Hinton broth MHB (in the case of Pseudomonas) or Sabouraud Maltose broth SMB (in the case of Yarrowia) with a cell density of 10^6 germs per ml.
The incubation time of the microtiter plates was 48 hours at 30° C. (Pseudomonas) or 25° C. (Yarrowia). After 48 hours the batches were evaluated for turbidity due to growth and, in addition, the optical density was determined by photometry. In this way, the minimum inhibitory concentrations (MHK) were determined for the two active substances individually and in combination.
The resulting synergism was represented numerically by calculating the synergy index (SI). […] There, the SI is calculated by the following formula: synergy index SI =Qa/QA +Qb/QB
Qa =concentration of component A in the mixture A+B
Qb =concentration of component B in the mixture A+B
If the synergy index has a value over 1, this means that an antagonism is present. If the synergy index takes on the value 1, this means that an addition of the effect of the two biocides/compounds is present. If the synergy index takes on a value below 1, this means that a synergism exists for the two biocides. If the synergy index has a value of more than 1, this means that an antagonism exists.

[3] = in the mixture with CMIT, as sole agent (QB) where Qa is 0

CCCCn1sc2ccccc2c1=O [BBIT, N-butyl-benzisothiazolinone]
Synergy index Qa/QA + Qb/QB ([1]; CMIT and BBIT): 1.00 | Qb (BBIT): concentration of BBIT indicating an end point [1, 3]: 20 ppm | Synergy index Qa/QA + Qb/QB ([2]; CMIT and BBIT): 1.00 | Qb (BBIT): concentration of BBIT indicating an end point [2, 3]: 3.00 ppm

Cn1sc(Cl)cc1=O [CMIT, 5-chloro-2-methylisothiazolin-3-one]
Synergy index Qa/QA + Qb/QB ([1]; CMIT and BAC): 1.00 | Synergy index Qa/QA + Qb/QB ([1]; CMIT and BBIT): 1.00 | Synergy index Qa/QA + Qb/QB ([1]; CMIT and DDAC): 1.00 | Synergy index Qa/QA + Qb/QB ([1]; CMIT and EDDS): 1.00 | Synergy index Qa/QA + Qb/QB ([1]; CMIT and GDA): 1.00 | Synergy index Qa/QA + Qb/QB ([1]; CMIT and HCHO): 1.00 | Synergy index Qa/QA + Qb/QB ([1]; CMIT and HEDP): 1.00 | Synergy index Qa/QA + Qb/QB ([1]; CMIT and IPBC): 1.00 | Synergy index Qa/QA + Qb/QB ([1]; CMIT and OIT): 1.00 | Synergy index Qa/QA + Qb/QB ([1]; CMIT and PASP Na salt): 1.00 | Synergy index Qa/QA + Qb/QB ([1]; CMIT and ethylparaben): 1.00 | Synergy index Qa/QA + Qb/QB ([1]; CMIT and methylparaben): 1.00 | Synergy index Qa/QA + Qb/QB ([1]; CMIT and phenetyl alcohol): 1.00 | Qa (CMIT): concentration of CMIT indicating an end point ([1]; in the mixture with BAC): 2 ppm | Qa (CIT): concentration of CMIT indicating an end point ([1]; in the mixture with BBIT): 2 ppm | Qa (CMIT): concentration of CMIT indicating an end point ([1]; in the mixture with DDAC): 2 ppm | Qa (CMIT): concentration of CMIT indicating an end point ([1]; in the mixture with EDDS): 2 ppm | Qa (CMIT): concentration of CMIT indicating an end point ([1]; in the mixture with GDA): 2 ppm | Qa (CMIT): concentration of CMIT indicating an end point ([1]; in the mixture with HCHO): 2 ppm | Qa (CMIT): concentration of CMIT indicating an end point ([1]; in the mixture with HEDP): 2 ppm | Qa (CIT): concentration of CMIT indicating an end point ([1]; in the mixture with IPBC): 2 ppm | Qa (CIT): concentration of CMIT indicating an end point ([1]; in the mixture with OIT): 2 ppm | Qa (CMIT): concentration of CMIT indicating an end point ([1]; in the mixture with PASP Na salt): 2 ppm | Qa (CMIT): concentration of CMIT indicating an end point ([1]; in the mixture with ethylparaben): 2 ppm | Qa (CMIT): concentration of CMIT indicating an end point ([1]; in the mixture with methylparaben): 2 ppm | Qa (CMIT): concentration of CMIT indicating an end point ([1]; in the mixture with phenetyl alcohol): 2 ppm | Synergy index Qa/QA + Qb/QB ([2]; CMIT and BBIT): 1.00 | Synergy index Qa/QA + Qb/QB ([2]; CMIT and IPBC): 1.00 | Synergy index Qa/QA + Qb/QB ([2]; CMIT and OIT): 1.00 | Synergy index Qa/QA + Qb/QB ([2]; CMIT and dehydracetic acid): 1.00 | Synergy index Qa/QA + Qb/QB ([2]; CMIT and salicylic acid): 1.00 | Synergy index Qa/QA + Qb/QB ([2]; CMIT and sorbic acid): 1.00 | Qa (CMIT) ([2]; in the mixture with BBIT): 2.50 ppm | Qa (CMIT) ([2]; in the mixture with IPBC): 2.50 ppm | Qa (CMIT) ([2]; in the mixture with OIT): 2.50 ppm | Qa (CMIT): concentration of CMIT indicating an end point ([2]; in the mixture with benzoic acid): 2.5 ppm | Qa (CMIT): concentration of CMIT indicating an end point ([2]; in the mixture with dehydracetic acid): 2.5 ppm | Qa (CMIT): concentration of CMIT indicating an end point ([2]; in the mixture with salicylic acid): 2.5 ppm | Qa (CMIT): concentration of CMIT indicating an end point ([2]; in the mixture with sorbic acid): 2.5 ppm

CCCCCCCCCC[N+](C)(C)CCCCCCCCCC.[Cl-] [DDAC, didecyldimethylammonium chloride]
Synergy index Qa/QA + Qb/QB ([1]; CMIT and DDAC): 1.00 | Qb (DDAC): concentration of DDAC indicating an end point [1, 3]: 7.5 ppm

O=CCCCC=O [GDA, glutardialdehyde]
Synergy index Qa/QA + Qb/QB ([1]; CMIT and GDA): 1.00 | Qb (GDA): concentration of GDA indicating an end point [1, 3]: 500 ppm

C=O [HCHO, formaldehyde]
Synergy index Qa/QA + Qb/QB ([1]; CMIT and HCHO): 1.00 | Qb (HCHO): concentration of HCHO indicating an end point [1, 3]: 500 ppm

CC(O)(P(=O)(O)O)P(=O)(O)O [HEDP, (1-hydroxyethylidene)bis-phosphonic acid]
Synergy index Qa/QA + Qb/QB ([1]; CMIT and HEDP): 1.00 | Qb (HEDP): concentration of HEDP indicating an end point [1, 3]: 250 ppm

CCCCNC(=O)OCC#CI [IPBC, 3-iodo-2-propynyl butylcarbamate]
Synergy index Qa/QA + Qb/QB ([1]; CMIT and IPBC): 1.00 | Qb (IPBC): concentration of IPBC indicating an end point [1, 3]: 1000 ppm | Synergy index Qa/QA + Qb/QB ([2]; CMIT and IPBC): 1.00 | Qb (IPBC): concentration of IPBC indicating an end point [2, 3]: 2.50 ppm

CCCCCCCCn1sccc1=O [OIT, octylisothiazolinone]
Synergy index Qa/QA + Qb/QB ([1]; CMIT and OIT): 1.00 | Qb (OIT): concentration of OIT indicating an end point [1, 3]: 300 ppm | Synergy index Qa/QA + Qb/QB ([2]; CMIT and OIT): 1.00 | Qb (OIT): concentration of OIT indicating an end point [2, 3]: 2.00 ppm

O=C(O)c1ccccc1 [benzoic acid]
Qb (benzoic acid): concentration of benzoic acid indicating an end point [2, 3]: 2500 ppm

CC(=O)C1C(=O)C=C(C)OC1=O (centres unmarked) [dehydracetic acid]
Synergy index Qa/QA + Qb/QB ([2]; CMIT and dehydracetic acid): 1.00 | Qb (dehydracetic acid): concentration of dehydracetic acid indicating an end point [2, 3]: 200 ppm

CCOC(=O)c1ccc(O)cc1 [ethylparaben]
Synergy index Qa/QA + Qb/QB ([1]; CMIT and ethylparaben): 1.00 | Qb (ethylparaben): concentration of ethylparaben indicating an end point [1, 3]: 1500 ppm

COC(=O)c1ccc(O)cc1 [methylparaben]
Synergy index Qa/QA + Qb/QB ([1]; CMIT and methylparaben): 1.00 | Qb (methylparaben): concentration of methylparaben indicating an end point [1, 3]: 2000 ppm

OCCc1ccccc1 [phenetyl alcohol]
Synergy index Qa/QA + Qb/QB ([1]; CMIT and phenetyl alcohol): 1.00 | Qb (phenetyl alcohol): concentration of phenetyl alcohol indicating an end point [1, 3]: 3000 ppm

O=C(O)c1ccccc1O [salicylic acid]
Synergy index Qa/QA + Qb/QB ([2]; CMIT and salicylic acid): 1.00 | Qb (salicylic acid): concentration of salicylic acid indicating an end point [2, 3]: 3000 ppm

C/C=C/C=C/C(=O)O [sorbic acid]
Synergy index Qa/QA + Qb/QB ([2]; CMIT and sorbic acid): 1.00 | Qb (sorbic acid): concentration of sorbic acid indicating an end point [2, 3]: 750 ppm

benzalkonium chloride [BAC]
Synergy index Qa/QA + Qb/QB ([1]; CMIT and BAC): 1.00 | Qb (BAC): concentration of BAC indicating an end point [1, 3]: 30 ppm
